Reference: patent publication US20110207694A1, “MAMMALIAN HYPOTHALAMIC NUTRIENT MODULATION OF GLUCOSE METABOLISM” (priority 2005, published 2011)
Entries after “also recorded” stand apart in the source; their conditions may differ.

Legend:
conscious rats [1] = test: ICV glucose or lactate infusion with pancreatic basal insulin clamp: plasma glucose and liver glucose production; assay type: in vivo, rat; details: for effect of ICV co-infused LDH inhibitor or KATP blocker on the effects of ICV glucose or lactate on plasma glucose and GP: ICV co-infusion
Text: We hypothesize that the hypothalamic sensing of glucose-derived pyruvate is a novel regulator of endogenous glucose production (GP). […] We propose that an increase in neuronal pyruvate levels is a hypothalamic signal of nutrient availability.
Long chain fatty acids in the brain decrease glucose production (GP) by the liver via activation of hypothalamus ATP-sensitive (KATP) channels. Here we tested whether (A) direct administration of glucose in the third cerebral ventricle can alter glucose production by the liver, and (B) whether this effect requires its metabolism in the TCA cycle.

conscious rats [2] = test: Intravenous lactate infusion with or without MBH oxamate: plasma TG and hepatic TG-VLDL production; assay type: in vivo, rat; details: oxamate within the mediobasal hypothalamus prior to the i.v. lactate infusion
Description: (§1) Infusion protocols. The in vivo infusion experiments lasted a total of 360 min, and the experiments were carried out in rats that had their food removed ˜5 h before the experiments. Thus, at the time of the experiment, the rats are in post-absorptive state since their stomach should be completely emptied by 5 h fasting. […] This ICV glucose protocol physiologically elevate hypothalamic glucose concentration by ˜70% as previously described (Lam et al., 2005b) and is similar to that induced by a doubling of the circulating glucose levels (Lam et al., 2005b). During the ICV infusions, we monitored the plasma metabolite levels under pre-infused (0 min), basal (180-240 min) and pancreatic clamp (300-360 min) conditions. […] A basal insulin-pancreatic clamp was performed in the final 2 h (240-360 min) of the study as previously described (Lam et al., 2005b). In brief, a continuous infusion of insulin (1 mU/kg.min) and somatostatin (3 μg/kg.min) was administered, and a variable infusion of a 25% glucose solution was started and periodically adjusted to clamp and maintain the plasma glucose concentration at ˜8 mM. […] To examine the time-dependent effects of ICY glucose on plasma triglycerides, ICY (5 μl/h) 2 mM D-glucose or mannitol was administrated for 210 min and plasma triglyceride levels were monitored at 0, 20, 60, 120, 180, 210 min. […] Plasma triglycerides were monitored under basal, pancreatic clamp and tyloxapol-treated conditions. At the end of the infusion experiments, rats were anesthetized and tissue samples were freeze-clamped in situ with aluminum tongs pre-cooled in liquid nitrogen. All tissue samples were stored at −80° C. for subsequent analysis.
VLDL are decreased in the hours following an acute bout of exercise. […] To investigate the mechanism by which lactate lowers plasma TG levels, the rate of production of hepatic TG-enriched VLDL was measured.

mediobasal hypothalamus = test: Intrahypothalamic (IH) infusion of glucose or DCA with pancreatic basal insulin clamp; assay type: in vivo, rat; details: IH, with glucose
Text: FIG. 3 is a diagram of experimental protocols (Panel (a)) and graphs of results of those experiments utilizing intrahypothalamic (IH) infusions of glucose.
FIG. 4 is a schematic and graphs of experimental results showing the effect of dichloroacetate (DCA), an inhibitor of pyruvate dehydrogenase kinase, having the effect of activating pyruvate dehydrogenase (PDH). The schematic of Panel (a) illustrates the PDH activation effect of DCA in the context of glucose metabolism, the TCA cycle, and nervous system cells.
We have localized the effect of glucose on liver glucose production to the mediobasal hypothalamus. This was accomplished using bilateral intraparenchymal (rather than ICY) delivery of both glucose and the KATP blocker GLI.

[3] = test system: Stearoyl-CoA Desaturase 1 (SCD1); test: Liver SCD1 activity, SCD1 mRNA and LCFA-CoA measurements; assay type: in vivo, rat
Description: (§2) Treatment with SCD1 ASO. Five and two days before the lipoprotein secretion studies, rats received a single intra-peritoneal injection of either SCD1 or scrambled (SCR) ASO (100 mg/kg of body weight). […] In a separate set of studies, rats received intra-portal injection of either SCD1 or SCR ASO (40 mg/kg of body weight) (Gutierrez-Juarez et al., 2006) three days before the lipoprotein secretion studies.
Liver LCFA-CoA measurements. The liver was sampled and the LCFA-CoAs were extracted from the liver and measured by high-performance liquid chromatography (HPLC) as previously described (Lam et al., 2005c).
Stearoyl-CoA Desaturase 1 (SCD1) activity. CD1 activity assays were performed essentially as described (Cohen et al., 2002) using 1-[^14C]-stearoyl-CoA as a substrate. At the end of the reaction incubation long-chain acyl CoAs (LC Acyl-CoAs) were extracted and fractionated by reverse-phase HPLC as previously reported (Lam et al., 2005c). Chromatographically resolved stearoyl CoA (C18:0) and oleyl-CoA (C18:1) peaks were collected and counted in a β-scintillation counter. Protein was assayed by the bicinchoninic acid (BCA) method using a commercially available kit (Pierce Biotechnology, Rockford, Ill.) according to the manufacturer's instructions.
Gene expression. Stearoyl-CoA Desaturasel (SCD1) mRNA was measured by quantitative real-time PCR. Briefly, total RNA was extracted from either liver or fat tissue using the Trizol reagent (Invitrogen, Carlsbad, Calif.) according to the manufacturer instructions. cDNA was then synthesized from 2 μg of total RNA using the Superscript® III First-Strand kit TM? (Invitrogen, Carlsbad, Calif.). Samples of RNA in which the reverse transcriptase was omitted (no RT controls) were also included. The cDNA and no RT controls were diluted 1:20 with PCR grade water and 2 μl from each sample was used for PCR in a total volume of 20 μl. The FastStart DNA Master SYBR Green I kit (Roche Applied Science, Indianapolis, Ind.) and a LightCycler® 2 instrument (Roche Applied Science, Indianapolis, Ind.) were used in all experiments. Either 18S mRNA expression was routinely measured for normalization purposes. The primer sequences used were as follows: 5′-[…]-3′ and 5′-[…]-3′ for Scd1; and 5′-[…]-3′ and 5′-[…]-3′ for ribosomal 18S. The mRNA copy number was calculated from standard curves obtained using cloned target templates (plasmid DNA) of known copy number for each gene of interest.

male Sprague-Dawley rats = test: ICV infusion: plasma triglycerides and metabolites under basal and pancreatic clamp conditions; assay type: in vivo, rat
Text: Animal preparation. We studied 10-week-old male Sprague-Dawley rats. Rats underwent stereotaxic surgery to indwell single catheters in the third cerebral ventricle {intracerebroventricular (ICV)(Obici et al., 2001) or bilateral catheters into the mediobasal hypothalamus (Lam et al., 2005c). One week later, we placed indwelling catheters in the internal jugular vein and carotid artery for sampling and infusion during the in vivo experiments (Obici et al., 2001). Recovery from surgery was monitored by measuring daily food intake and weight gain for 4-5 days after surgery.
as §1
Biochemical analyses. Plasma glucose concentrations were measured by the glucose oxidase method (Glucose Analyzer II, Beckman Instruments, Inc., Fullerton, Calif.). […] FFA concentrations were determined by an enzyme assay in accordance with the manufacturer's specifications (Waco Pure Chemical Industries. Osaka. Japan). Plasma insulin concentrations (with rat and porcine insulin standards) were measured by radioimmunoassay (RIA). Plasma adiponectin concentrations were measured by RIA (Linco Inc., Austin, Tex., USA). Liver triglycerides were measured as described (Muse et al., 2004).
Calculations. Statistical analysis was done by unpaired Student's t test or analysis of variance as appropriate. Data are presented as means±SEM. All values were collapsed into a single value for each animal prior to the calculation of mean. The time period 180-240 min was averaged for the basal and the time period 300-360 min was averaged for the clamp conditions.

hepatic VLDL secretion = test: Lipoprotein (VLDL) secretion studies with tyloxapol; NMR particle size; assay type: in vivo, rat
Description: Lipoproteins secretion and particles concentration and size measurements. Tyloxapol (600 mg/kg; ˜1 min) was intravenously injected to inhibit endogenous lipoprotein lipase. This high dose of tyloxapol ensured complete inhibition of triglyceride clearance during VLDL secretion studies. Plasma samples were taken every 30 min for triglycerides analysis and for lipoprotein profiling. Plasma VLDL particles concentration and size were determined by nuclear magnetic resonance spectroscopy (lipoprofile-II test) at Liposcience as previously described (Otvos et al., 1991; 1992). This NMR lipoprofile-II test is based on the assumption that each plasma lipoprotein particle of a particular size gives its own characteristic lipid NMR signal. The intensity of the signal is also in proportion to the concentration of the particle. The diameter range for large, medium and small VLDL is >60 nm, 35-60 nm, and 27-35 nm, respectively.
Selective hepatic branch vagotomy. The surgeries were performed as described (Lam et al., 2005c).
as §2
Portal oleate infusion. Chronic portal catheter was implanted and 7 days were allowed for rat recovery. Oleic acid (45 mM; dissolved in 45% HBP) was infused at a rate of 40 μl/h for 2.5 h (1 h before the 90 min lipoprotein secretion studies). This dose enabled the reconstitution of hepatic oleyl-CoA levels back to normal during portal SCD1 ASO (FIG. 11c) or ICV glucose studies (FIG. 11d).

conscious rats [4] = test: Circulating lactate infusion with central LDH inhibitor or KATP blocker: glucose kinetics during pancreatic clamps

NC(=O)C(=O)O [oxamate, reference compound]
GP (glucose production) (conscious rats [1]; ICV oxamate (50 mM) with ICV glucose): 11.9 ± 1.0 mg/kg/min
GP (glucose production) (conscious rats [1]; ICV oxamate with ICV lactate): 11.3 ± 0.6 mg/kg/min
plasma glucose (conscious rats [1]; ICV oxamate with ICV lactate): 144 ± 1 mg/dL
hepatic TG-enriched VLDL production (conscious rats [2]): 0.056 ± 0.002 mM/min
plasma TG levels (conscious rats [2]): 0.44 ± 0.12 mM

COc1ccc(Cl)cc1C(=O)NCCc1ccc(S(=O)(=O)NC(=O)NC2CCCCC2)cc1 [glibenclamide, reference compound]
effect of KATP blocker on the effects of IH glucose (mediobasal hypothalamus): prevented
effect of ICV co-infused LDH inhibitor or KATP blocker on the effects of ICV glucose or lactate on plasma glucose and GP (conscious rats [1]): inhibited
effect of ICV co-infused LDH inhibitor or KATP blocker on the effects of ICV glucose or lactate on plasma glucose and GP (conscious rats [1]; listed as GLI): inhibited
effect of ICV co-infused LDH inhibitor or KATP blocker on the effects of ICV glucose or lactate on plasma glucose and GP (conscious rats [1]; listed as sulfonylurea): completely abolished the effects of ICV glucose and lactate on plasma glucose and GP
effect of ICV co-infused inhibitor on the decrease of hepatic SCD1 mRNA and activity by ICV glucose ([3]; ICV co-infusion with glucose): abolished
effect of ICV co-infused inhibitor on the plasma triglyceride-lowering effects of ICV glucose or lactate (male Sprague-Dawley rats; ICV co-infusion (oxamate 50 mM, glibenclamide 100 μM)): negated the effects of both ICV glucose and lactate on plasma triglycerides; also recorded: abolishes the plasma triglyceride-lowering effects of glucose; also recorded: abolished the plasma triglyceride-lowering effects of lactate
plasma triglyceride levels, inhibitor per se (male Sprague-Dawley rats; ICV inhibitor alone): did not per se alter the levels of plasma triglycerides
effect of central co-infusion of inhibitor on suppression of VLDL-triglyceride secretion by ICV glucose (hepatic VLDL secretion; central co-infusion with glucose): abolished
glucose infusion rate to maintain euglycemia (conscious rats [4]; ICV inhibitor infused with IV lactate): decreased glucose infusion rate
glucose production (conscious rats [4]; central inhibitor infused with circulating lactate infusion): increase in glucose production

CCCCCCCC/C=C\CCCCCCCC(=O)O [oleic acid]
hepatic oleyl-CoA ([3]; portal infusion of oleic acid during ICV glucose or SCD1 deficiency): restores hepatic oleyl-CoA to control levels
effect of portal oleic acid infusion on VLDL secretion (hepatic VLDL secretion; portal infusion during ICV glucose or SCD1 ASO): negates the effects of both central glucose and SCD1 deficiency on VLDL secretion; also recorded: sufficient to negate the effect of SCD1 deficiency on VLDL secretion
